Reference: ChEMBL document CHEMBL1158854, “Antimycobacterial polyynes of Devil's Club (Oplopanax horridus), a North American native medicinal plant” (1997)
Converted amounts (≈) assume the structure as drawn. The source made the active and inactive calls. The rule behind the calls is not given here.

Legend:
[1] = test system: Pseudomonas aeruginosa; assay: Antimicrobial activity against Pseudomonas aeruginosa Z61 by twofold serial microbroth dilution method; assay type: functional
[2] = test system: Pseudomonas aeruginosa; assay: Antimicrobial activity against Pseudomonas aeruginosa K799 by twofold serial microbroth dilution method; assay type: functional
[3] = test system: Staphylococcus aureus; assay: Antimicrobial activity against methicillin-resistant Staphylococcus aureus SAP00017 by twofold serial microbroth dilution method; assay type: functional
[4] = test system: Escherichia coli; assay: Antimicrobial activity against Escherichia coli UB1005 by twofold serial microbroth dilution method; assay type: functional
[5] = test system: Staphylococcus aureus; assay: Antimicrobial activity against methicillin-susceptible Staphylococcus aureus RN4220 by twofold serial microbroth dilution method; assay type: functional
[6] = test system: Bacillus subtilis; assay: Antimicrobial activity against Bacillus subtilis UBC221 by twofold serial microbroth dilution method; assay type: functional
[7] = test system: Candida albicans; assay: Antimicrobial activity against Candida albicans UBC54 by twofold serial microbroth dilution method; assay type: functional
[8] = test system: Mycobacterium tuberculosis; assay: Antimycobacterial activity against Mycobacterium tuberculosis at 100 ug/disk by disk diffusion assay; assay type: functional, organism-based
[9] = test system: Mycobacterium avium; assay: Antimycobacterial activity against isoniazid-resistant Mycobacterium avium at 20 ug/disk by disk diffusion assay; assay type: functional, organism-based
[10] = test system: Mycobacterium avium; assay: Antimycobacterial activity against isoniazid-resistant Mycobacterium avium at 100 ug/disk by disk diffusion assay; assay type: functional, organism-based
[11] = test system: Escherichia coli; assay: Antimicrobial activity against Escherichia coli DC2 by twofold serial microbroth dilution method; assay type: functional
[12] = test system: Mycobacterium tuberculosis; assay: Antimycobacterial activity against Mycobacterium tuberculosis at 10 ug/disk by disk diffusion assay; assay type: functional, organism-based
[13] = test system: Mycobacterium tuberculosis; assay: Antimycobacterial activity against Mycobacterium tuberculosis at 20 ug/disk by disk diffusion assay; assay type: functional, organism-based
[14] = test system: Mycobacterium avium; assay: Antimycobacterial activity against isoniazid-resistant Mycobacterium avium at 10 ug/disk by disk diffusion assay; assay type: functional, organism-based

Row | Compound | MIC [1] [µg/mL] | MIC [2] [µg/mL] | MIC [3] [µg/mL] | MIC [4] [µg/mL] | MIC [5] [µg/mL] | MIC [6] [µg/mL] | MIC [7] [µg/mL] | Activity [8] | Activity [9] | Activity [10] | MIC [11] [µg/mL] | Activity [12] | Activity [13] | Activity [14]
1 | C=C[C@H](O)C#CC#C[C@@H](O)/C=C\CCCCCCCCOC(C)=O | > 50 | > 50 | > 50 | > 50 | 50 (≈ 150 µM) | 25 (≈ 75.2 µM) | > 50 | Active | Active | Active | > 50 | – | – | –
2 | NNC(=O)c1ccncc1 | – | – | – | – | – | – | – | Active | inactive | inactive | – | Active | Active | inactive
3 | C=C[C@@H](O)C#CC#C[C@@H](O)/C=C\CCCCCCC [FALCARINDIOL] | 50 (≈ 192 µM) | > 50 | 25 (≈ 96 µM) | > 50 | 25 (≈ 96 µM) | 6.25 (≈ 24 µM) | 25 (≈ 96 µM) | Active | Active | Active | 25 (≈ 96 µM) | – | – | –
4 | C=C[C@H](O)C#CC#CC/C=C\CCCCCCC [FALCARINOL] | 6.25 (≈ 25.6 µM) | > 50 | 3.1 (≈ 12.7 µM) | > 50 | 3.1 (≈ 12.7 µM) | 3.1 (≈ 12.7 µM) | 6.25 (≈ 25.6 µM) | Active | Active | Active | 6.25 (≈ 25.6 µM) | – | Active | –
5 | COc1cccc(OC)c1C(=O)N[C@@H]1C(=O)N2[C@@H]1SC(C)(C)[C@@H]2C(=O)O [METHICILLIN] | 3.1 (≈ 8.15 µM) | > 100 | – | > 100 | 1.6 (≈ 4.21 µM) | 100 (≈ 263 µM) | > 100 | – | – | – | 1.6 (≈ 4.21 µM) | – | – | –
6 | CC[C@H](O)C#CC#C[C@@H](O)/C=C\CCCCCCCCOC(C)=O [OPLOPANDIOL ACETATE] | > 50 | > 50 | > 50 | > 50 | 50 | 25 | > 50 | Active | Active | Active | > 50 | – | Active | –
7 | CCCCCCC/C=C\[C@H](O)C#CC#C[C@@H](O)CC [OPLOPANDIOL] | > 50 | > 50 | 6.25 (≈ 23.8 µM) | > 50 | 6.25 (≈ 23.8 µM) | 6.25 (≈ 23.8 µM) | 12.5 (≈ 47.6 µM) | Active | – | Active | 6.25 (≈ 23.8 µM) | – | – | –
8 | GENTAMICIN | 0.6 | 1.25 | > 10 | 1.25 | 0.6 | 1.25 | – | – | – | – | 0.6 | – | – | –
